Results on 23 molecules are retold here after patent US10221139B2, “Inhibitors of histone demethylases” (Gilead Sciences, Inc., priority 2012, dated 2019).

The target in assay [1] is T1, GASC1 (KDM4C, JMJD2C) (Homo sapiens, UniProt Q9H3R0).
T1 construct: 1-349; host or cells: E. coli
T1 sequence (Q9H3R0 1-349): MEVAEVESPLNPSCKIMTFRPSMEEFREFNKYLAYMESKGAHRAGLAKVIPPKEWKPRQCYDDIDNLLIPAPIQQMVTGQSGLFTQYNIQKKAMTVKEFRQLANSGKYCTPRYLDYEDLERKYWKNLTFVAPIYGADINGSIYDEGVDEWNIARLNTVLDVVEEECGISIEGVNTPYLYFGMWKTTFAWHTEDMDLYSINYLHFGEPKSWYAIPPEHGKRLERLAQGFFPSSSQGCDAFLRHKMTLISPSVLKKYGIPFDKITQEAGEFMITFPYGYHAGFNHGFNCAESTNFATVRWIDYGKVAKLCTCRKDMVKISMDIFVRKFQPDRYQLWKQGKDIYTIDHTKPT
In words: Histone lysine demethylase AlphaLISA assay, GASC1. Conditions: substrate BK9M3. The assay is classed as biochemical. The procedure: (§1) Example 2: Histone Lysine Demethylase AlphaLISA Assays for IC50 Value Determination
(§2) Assays are performed analogously to the protocol described by Perkin Elmer (Roy et al. Perkin Elmer Technical Note: AlphaLISA #12, April 2011).
(§3) Enzymes are dissolved in enzyme buffer and incubated for 10 min before 5 μL is added to 5 μL 3% DMSO solutions of compounds in enzyme buffer. Incubated for another 10 minutes, before 5 μL substrate solution is added and the reaction mixture is incubated at room temperature for the given period. 10 μL acceptor beads, suspended at given dilutions in Epigenetic Buffer (Perkin Elmer AL008) from stock, are added and the suspension is incubated 60 minutes in the dark at room temperature, before 10 μL suspension (at the given dilutions in Epigenetic Buffer) of streptavidin donor beads (Perkin Elmer 6760002) in Epigenetic Buffer is added. After incubation at room temperature in the dark the plates are read. Reaction conditions are seen in Table 2b.

For assay [2], the target named is T2, UTX (KDM6A) (Homo sapiens, UniProt O15550).
T2 construct: 919-1401; host or cells: E. coli
T2 sequence (O15550 919-1401): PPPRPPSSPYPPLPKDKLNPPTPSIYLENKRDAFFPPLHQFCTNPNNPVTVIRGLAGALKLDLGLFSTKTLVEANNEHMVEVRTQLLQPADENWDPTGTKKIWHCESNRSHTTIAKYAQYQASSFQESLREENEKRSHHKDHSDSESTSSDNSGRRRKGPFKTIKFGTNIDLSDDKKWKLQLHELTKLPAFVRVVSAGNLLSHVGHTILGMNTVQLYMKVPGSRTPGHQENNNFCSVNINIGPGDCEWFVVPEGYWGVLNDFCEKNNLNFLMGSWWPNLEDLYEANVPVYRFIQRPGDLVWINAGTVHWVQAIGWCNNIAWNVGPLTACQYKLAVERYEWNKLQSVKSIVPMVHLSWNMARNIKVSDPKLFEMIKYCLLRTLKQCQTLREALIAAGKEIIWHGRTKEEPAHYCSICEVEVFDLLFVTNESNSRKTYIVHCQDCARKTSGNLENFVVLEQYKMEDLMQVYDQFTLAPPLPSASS
The experiment in a line: Histone lysine demethylase AlphaLISA assay, UTX. Particulars: substrate BK27M3. The class given is biochemical. The procedure:
as §1, §2, §3

Assay [3] has as its target T3, PLU1 (KDM5B) (Homo sapiens, UniProt Q9UGL1).
T3 construct: 1-809; host or cells: E. coli
T3 sequence (Q9UGL1 1-809): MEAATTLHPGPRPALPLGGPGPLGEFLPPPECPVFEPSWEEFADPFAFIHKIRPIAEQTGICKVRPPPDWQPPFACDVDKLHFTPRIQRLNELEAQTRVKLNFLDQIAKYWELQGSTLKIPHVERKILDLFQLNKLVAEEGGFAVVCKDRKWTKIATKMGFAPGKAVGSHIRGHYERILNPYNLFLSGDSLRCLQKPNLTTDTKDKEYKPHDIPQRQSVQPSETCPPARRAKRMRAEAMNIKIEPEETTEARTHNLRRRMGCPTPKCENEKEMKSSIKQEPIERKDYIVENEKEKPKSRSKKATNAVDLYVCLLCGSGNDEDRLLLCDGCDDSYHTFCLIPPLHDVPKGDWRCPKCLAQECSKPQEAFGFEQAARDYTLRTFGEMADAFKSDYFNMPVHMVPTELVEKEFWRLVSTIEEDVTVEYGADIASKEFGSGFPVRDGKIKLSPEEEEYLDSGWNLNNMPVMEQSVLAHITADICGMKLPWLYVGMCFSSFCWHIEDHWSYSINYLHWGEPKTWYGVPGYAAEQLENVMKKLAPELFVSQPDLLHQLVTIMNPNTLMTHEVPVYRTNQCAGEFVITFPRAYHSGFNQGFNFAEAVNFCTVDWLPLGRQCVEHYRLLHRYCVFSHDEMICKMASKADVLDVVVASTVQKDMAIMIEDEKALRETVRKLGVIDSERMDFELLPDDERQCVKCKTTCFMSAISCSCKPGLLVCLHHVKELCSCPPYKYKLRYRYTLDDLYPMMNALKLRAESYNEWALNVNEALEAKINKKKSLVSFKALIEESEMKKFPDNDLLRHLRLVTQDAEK
The experiment in a line: Histone lysine demethylase AlphaLISA assay, PLU1. The assay is classed as biochemical. Conditions: substrate H3K4M3B. The procedure: as §1, §2, §3

Assay [4] deals with MCF7 cells. In words: MCF7 cell proliferation assay (ATPlite). The class given is cell-based. Conditions: Homo sapiens, 120 hours. The procedure: MCF7 cells were seeded at 1250 cells/well in 50 μl medium/well in black 96 well plates. Cells were incubated for 24 hours before addition of compound. Compounds were diluted in complete medium (50 μl/well) and added to the plates in duplicates. The total volume of medium in the wells was 100 μl, and the final concentration of DMSO 0.5%. Complete medium used was DMEM with GlutaMAX containing 10% FBS and pen/strep.
120 hours after addition of compounds, the plates were harvested and analyzed by ATPlite 1 Step (Perkin Elmer, cat no 6016739) according to the manufactures recommendation. Briefly, 100 μl ATP lite solution was added to each well, plates were vortexed at 700 rpm 2 minutes, followed by 20 minutes incubation in the dark, and then analyzed for luminescence on EnSpire 2300 Mulitilabel reader (Perkin Elmer). EC50 values were calculated using GraphPad Prism 6.

Consider `CCN(CC)CCCCNCc1cc(C(=O)Oc2c(OC)cccc2OC)ccn1` [#56, 2,6-dimethoxyphenyl 2-({[4-(diethylamino)butyl]amino}methyl)pyridine-4-carboxylate], for which the IC50 in assay [1] is 100 to 1000 nM; in assay [2] it was at least 1000 nM; in assay [3] it was under 100 nM.
For `CCN(CC)CCCCNCc1cc(C(=O)Oc2c(C)cccc2C)ccn1` [#57, 2,6-dimethylphenyl 2-({[4-(diethylamino)butyl]amino}methyl)pyridine-4-carboxylate], in that order: at least 1000 nM, at least 1000 nM and under 100 nM.
For `CCN(CCN(C)C)C(=O)CNCc1cc(C(=O)Oc2ccc(OC)cc2)ccn1` [#58, 4-methoxyphenyl 2-{[({[2-(dimethylamino)ethyl](ethyl)carbamoyl}methyl)amino]methyl}pyridine-4-carboxylate], in that order: 100 to 1000 nM, at least 1000 nM and under 100 nM.
The like results for `CCOC(=O)c1ccccc1OC(=O)c1ccnc(CNCC(=O)N(CC)CCN(C)C)c1` [#59, 2-(ethoxycarbonyl)phenyl 2-{[({[2-(dimethylamino)ethyl](ethyl)carbamoyl}methyl)amino]methyl}pyridine-4-carboxylate] were, in that order, under 100 nM, under 100 nM and under 100 nM.
`CCOC(=O)N(C)c1ccc(COC(=O)c2ccnc(CNCCCCN(CC)CC)c2)cc1` [#60, {4-[(ethoxycarbonyl)(methyl)amino]phenyl}methyl 2-({[4-(diethylamino)butyl]amino}methyl)pyridine-4-carboxylate]: the IC50 in assay [1] is at least 1000 nM; in assay [2], under 100 nM; in assay [3] it was under 100 nM.
On to `CCN(CCN(C)C)C(=O)CNCc1cc(C(=O)OC(C)CCN(C)C(=O)C(F)(F)F)ccn1` (centres unmarked) [#64, 4-(2,2,2-trifluoro-N-methylacetamido)butan-2-yl 2-{[({[2-(dimethylamino)ethyl](ethyl)carbamoyl}methyl)amino]methyl}pyridine-4-carboxylate], for which the IC50 in assay [1] was under 100 nM; in assay [2], at least 1000 nM; in assay [3] it was 100 to 1000 nM.
Consider `CCOC(=O)c1ccnc(CNCC(=O)N(CC)CCN(C)C)c1` [#65, ethyl 2-{[({[2-(dimethylamino)ethyl](ethyl)carbamoyl}methyl)amino]methyl}pyridine-4-carboxylate], for which the figures for the half-inhibitory concentration (IC50) in assay [1], in assay [2] and in assay [3] were 100 to 1000 nM, under 100 nM and 100 to 1000 nM, respectively.
For the molecule `C=CC(CCNC(=O)C(F)(F)F)OC(=O)c1ccnc(CNCC(=O)N(CC)CCN(C)C)c1` (centres unmarked) [#66, 5-(trifluoroacetamido)pent-1-en-3-yl 2-{[({[2-(dimethylamino)ethyl](ethyl)carbamoyl}methyl)amino]methyl}pyridine-4-carboxylate], the IC50 in assay [1] was 100 to 1000 nM; in assay [2], under 100 nM; in assay [3] it was 100 to 1000 nM.
Take `C=CC(CCN(C)C(=O)C(F)(F)F)OC(=O)c1ccnc(CNCC(=O)N(CC)CCN(C)C)c1` (centres unmarked) [#67, 5-(2,2,2-trifluoro-N-methylacetamido)pent-1-en-3-yl 2-{[({[2-(dimethylamino)ethyl](ethyl)carbamoyl}methyl)amino]methyl}pyridine-4-carboxylate]: the results for the IC50 in assay [1], in assay [2] and in assay [3] were 100 to 1000 nM, under 100 nM and 100 to 1000 nM, respectively.
For the molecule `CCCCCCCCCCCCCCCC(=O)OCC(COC(=O)c1ccnc(CNCC(=O)N(CC)CCN(C)C)c1)OC(=O)CCCCCCCCCCCCCCC` (centres unmarked) [#69, 1-(2-{[({[2-(dimethylamino)ethyl](ethyl)carbamoyl}methyl)amino]methyl}pyridine-4-carbonyloxy)-3-(hexadecanoyloxy)propan-2-yl hexadecanoate], the IC50 in assay [1] is 100 to 1000 nM; in assay [2], under 100 nM; in assay [3], 100 to 1000 nM.
Take `CCN(CCN(C)C)C(=O)CNCc1cc(C(=O)Nc2nccn2C)ccn1` [#89, 2-{[({[2-(dimethylamino)ethyl](ethyl)carbamoyl}methyl)amino]methyl}-N-(1-methyl-1H-imidazol-2-yl)pyridine-4-carboxamide]: the IC50 in assay [1] is 100 to 1000 nM; in assay [2], under 100 nM; in assay [3] it was under 100 nM.
Molecule `O=C(O)c1ccnc(CNCC2CC2)c1` [drawing 257, 2-{[(cyclopropylmethyl)amino]methyl}pyridine-4-carboxylic acid] yielded a 50% effective concentration (EC50) in assay [4] of 1000 to 50000 nM.
Take `CSCCNCc1cc(C(=O)O)ccn1` [drawing 258, 2-({[2-(methylsulfanyl)ethyl]amino}methyl)pyridine-4-carboxylic acid]: the EC50 in assay [4] lay within 1000 to 50000 nM.
On the same count and under the same terms, next, `Cn1c(CNCc2cc(C(=O)O)ccn2)nc2ccccc21` [drawing 259]: 1000 to 50000 nM; `C=CCN(CC=C)C(=O)CNCc1cc(C(=O)O)ccn1` [drawing 260, 2-[({[bis(prop-2-en-1-yl)carbamoyl]methyl}amino)methyl]pyridine-4-carboxylic acid]: 1000 to 50000 nM.
The same measure, in the same setting: next, `CN(CCCc1nccn1C)C(=O)CNCc1cc(C(=O)O)ccn1` [drawing 261, 2-{[({methyl[3-(1-methyl-1H-imidazol-2-yl)propyl]carbamoyl}methyl)amino]methyl} pyridine-4-carboxylic acid]: 1000 to 50000 nM; `COc1ccccc1CN1CCC(NC(=O)CNCc2cc(C(=O)O)ccn2)CC1` [drawing 262]: 1000 to 50000 nM; `CCN(CCC#N)C(=O)CNCc1cc(C(=O)O)ccn1` [drawing 263, 2-[({[(2-cyanoethyl)(ethyl)carbamoyl]methyl}amino)methyl]pyridine-4-carboxylic acid]: 1000 to 50000 nM.
The same measure, in the same setting: next, `CN(CCCNCc1cc(C(=O)O)ccn1)Cc1ccccc1F` [drawing 264, 2-{[(3-{[(2-fluorophenyl)methyl](methyl)amino}propyl)amino]methyl}pyridine-4-carboxylic acid]: 1000 to 50000 nM; `O=C(O)c1ccnc(CNCCCN2CCC(Cc3ccccc3)CC2)c1` [drawing 265, 2-({[3-(4-benzylpiperidin-1-yl)propyl]amino}methyl)pyridine-4-carboxylic acid]: 1000 to 50000 nM; `O=C(O)c1ccnc(CNCCCNCCOc2ccccc2)c1` [drawing 266, 2-[({3-[(2-phenoxyethyl)amino]propyl}amino)methyl] pyridine-4-carboxylic acid]: 1000 to 50000 nM.
`CN(CCCCN(Cc1ccccc1)C1CC1)C(=O)CNCc1cc(C(=O)O)ccn1` [drawing 267, 2-({[({4-[benzyl(cyclopropyl)amino]butyl)(methyl)carbamoyl)methyl]amino}methyl)pyridine-4-carboxylic acid] gave an EC50 in assay [4] of over 50000 nM.
With “{4-[(ethoxycarbonyl)amino]phenyl}methyl 2-({[4-(diethylamino)butyl]amino}methyl)pyridine-4-carboxylate [#55]”, the IC50 was 100 to 1000 nM in assay [1], at least 1000 nM in assay [2] and under 100 nM in assay [3].
